Assay results as given in article PMC6321172, “Analysis of Vipadenant and Its In Vitro and In Vivo Metabolites via Liquid Chromatography-Quadrupole-Time-of-Flight Mass Spectrometry” (Pharmaceutics, 2018).
Like-named read-outs stand apart in the source and are kept apart here.

Experiments:
[1] = Preliminary stability assessment in rat plasma QC samples; type: physicochemical; settings: for Mean Accuracy (%), post-preparative stability: processed rat plasma samples, 24 h, 4 °C; for Mean Accuracy (%), long-term stability: 2 weeks; for Mean Accuracy (%), long-term stability / Mean Accuracy (%), freeze-thaw stability: −80 °C; for Mean Accuracy (%), freeze-thaw stability: 3 cycles; for Mean Accuracy (%), short term stability: 4 h, RT
Protocol: Each stability assessment was carried out in blank rat plasma. Three levels of QC (low, medium and high) were used in the short-term, freeze-thaw, long-term and post-preparative stability assessments and two levels of QC (medium & high) were used in stock solution stability assessment. The short term stability assessment was carried out at room temperature (RT) over 4 h and the results obtained were compared with the control (0 min). In the long-term stability assessment, the samples kept frozen at −80 °C for 2 weeks were compared with the freshly prepared control group samples. The freeze-thaw stability was evaluated over three cycles of freezing (−80 °C) and thawing (RT). […] As a separate stock-solution stability assessment, the vipadenant stock-solution prepared at 1 mg/mL (DMSO) was stored at −80 °C for 6 months and its stability was evaluated. The stability test results were evaluated by confirming that the mean accuracy (%) of the nominal value which should be within ± 25% range.

[2] = Stock solution stability assessment (1 mg/mL in DMSO); type: physicochemical; settings: for Mean Accuracy (%), stock storage stability: DMSO stock, 6 months, −80°C
Protocol: Each stability assessment was carried out in blank rat plasma. Three levels of QC (low, medium and high) were used in the short-term, freeze-thaw, long-term and post-preparative stability assessments and two levels of QC (medium & high) were used in stock solution stability assessment. The short term stability assessment was carried out at room temperature (RT) over 4 h and the results obtained were compared with the control (0 min). In the long-term stability assessment, the samples kept frozen at −80 °C for 2 weeks were compared with the freshly prepared control group samples. The freeze-thaw stability was evaluated over three cycles of freezing (−80 °C) and thawing (RT). The post-preparative stability was assessed for the QC samples kept in an auto-sampler (10 °C) for 24 h. As a separate stock-solution stability assessment, the vipadenant stock-solution prepared at 1 mg/mL (DMSO) was stored at −80 °C for 6 months and its stability was evaluated. The stability test results were evaluated by confirming that the mean accuracy (%) of the nominal value which should be within ± 25% range.

[3] = Rat pharmacokinetic study after IV or PO administration; type: in vivo; settings: for Cmax: read-out: C0 or Cmax; for Vd: read-out: Vss
Protocol: Twenty microliters of the rat pharmacokinetics samples were placed in cluster tubes. As a make-up solution, 4 μL of DMSO was added to the cluster tube and 100 μL of ACN containing ISTD (verapamil) was also added. The mixture was capped, gently shaken for approximately 1 min and was then centrifuged for 5 min at 12,000 rpm (4 °C). Following the centrifugation, 50 μL supernatant was transferred to a clean test tube and was diluted with 100 μL of distilled water. The resulting mixture was then transferred to an LC-vial and 10 μL was injected to the LC-QTOF-MS. The same procedure was also applied to the STD samples and QC samples.
Data acquisition and LC-QTOF-MS operation was conducted using Analyst® TF Version 1.6 (Sciex). MultiQuant® Version 2.1.1 (Sciex) was used for the peak integration for vipadenant quantification. PeakView® Version 2.2 and MetabolitePilot™ Version 2.0.2 were used for the structural elucidation of vipadenant metabolites. […] Pharmacokinetic parameters were calculated in a non-compartmental analysis using WinNonlin® version 8.0.0 (Certara, Princeton, NJ, USA).
Male sprague-dawley rats (300 ± 10 g) were purchased from the Samtako Biokorea Co. (Gyeonggi, Korea) and housed in groups of 3~4 per cage and given standard rodent chow. […] Rats were distributed into four different groups (three rats per group; 1 & 2 mg/kg IV group and 2 & 5 mg/kg PO group). Blood was drawn into the heparinized tubes after IV (1 and 2 mg/kg) or PO (2 and 5 mg/kg) administration and was immediately centrifuged at 10,000 rpm for 5 min. […] The supernatant of the centrifuged samples (plasma) were transferred to the clean tubes and stored at −20 °C until analysis.
During the sample preparation of the PK samples, QC samples were included for the assurance of the analytical run.

[4] = In-house metabolic stability study (rat liver microsome); type: in vitro ADME; settings: liver microsomes, read-out: in vitro intrinsic clearance
[5] = rat plasma, nominal QC 15 ng/mL
[6] = rat plasma, nominal QC 165 ng/mL
[7] = rat plasma, nominal QC 1820 ng/mL
[8] = male, Sprague-Dawley, plasma, rat, IV 1 mg/kg
[9] = male, Sprague-Dawley, plasma, rat, IV 2 mg/kg
[10] = male, Sprague-Dawley, plasma, rat, PO 2 mg/kg
[11] = male, Sprague-Dawley, plasma, rat, PO 5 mg/kg

## Cc1cc(Cn2nnc3c(-c4ccco4)nc(N)nc32)ccc1N [vipadenant, Vipadenant]
[1]; auto-sampler storage condition (10 °C)
  time processed samples stable: at least 24 h
[1]; nominal QC 15 ng/mL
  Mean Accuracy (%), post-preparative stability: 114.8%
[1]; nominal QC 165 ng/mL
  Mean Accuracy (%), post-preparative stability: 99.2%
[1]; nominal QC 1820 ng/mL
  Mean Accuracy (%), post-preparative stability: 94.9%
[1]; [5]
  Mean Accuracy (%), long-term stability: 111.8%
  Mean Accuracy (%), freeze-thaw stability: 118.8%
  Mean Accuracy (%), short term stability: 97.8%
[1]; [6]
  Mean Accuracy (%), long-term stability: 104.1%
  Mean Accuracy (%), freeze-thaw stability: 88.5%
  Mean Accuracy (%), short term stability: 90.5%
[1]; [7]
  Mean Accuracy (%), long-term stability: 103.7%
  Mean Accuracy (%), freeze-thaw stability: 91.1%
  Mean Accuracy (%), short term stability: 92.6%
[1]; rat plasma, three cycles of freeze-thawing (RT vs. −80 °C)
  freeze-thaw stability (in words): stable
[1]; rat plasma, −80 °C storage
  time stable, long-term stability test: at least 2 weeks
[1]; room temperature
  time stable in rat plasma QC sample: at least 4 h
[2]; nominal QC 165 ng/mL
  Mean Accuracy (%), stock storage stability: 102.5%
[2]; nominal QC 1820 ng/mL
  Mean Accuracy (%), stock storage stability: 95.6%
[2]; stock solution prepared in DMSO
  time stock solution showed stability: 6 months
[3]; [8]
  AUC(0-t): 451 ng·h/mL
  Tmax: 2.6 min
  clearance: 37.8 ± 7.2 mL/min/kg
  half-life: 48 ± 5.8 min
  Cmax: 2210 ± 1160 ng/mL
  Vd: 1.08 ± 0.223 L/kg
[3]; [9]
  AUC(0-t): 1510 ng·h/mL
  Tmax: 2 min
  clearance: 22.5 ± 4.3 mL/min/kg
  half-life: 71.2 ± 8.5 min
  Cmax: 3090 ± 222 ng/mL
  Vd: 1.21 ± 0.174 L/kg
[3]; [10]
  AUC(0-t): 279 ng·h/mL
  Tmax: 7.5 min
  half-life: 65.2 ± 20.2 min
  Cmax: 230 ± 88 ng/mL
[3]; [11]
  AUC(0-t): 887 ng·h/mL
  Tmax: 30 min
  half-life: 116 ± 59 min
  Cmax: 296 ± 87.3 ng/mL
[3]; male, Sprague-Dawley, plasma, rat, PO 2 and 5 mg/kg vs IV 1 and 2 mg/kg, read-out: BA (average bioavailability)
  bioavailability: 30.4 ± 8.9%
[3]; rat IV study
  clearance (in words): low to moderate clearance
[4]
  CLint scaled: 20 mL/min/kg
